Reference: US20170143674A1, “Use of Glutaryl Histamine for the Treatment of Respiratory Tract Diseases” (LTD "VALENTA-INTELLEKT", priority 2011, published 2017)
Marks after values point to notes of the source that are not given here.

Assays:
[1] = test system: Staphylococcus aureus (mouse-adapted MRSA strain 5); assay: animal or person; assay type: in vivo, mice
Description: Tested medicament was glutaryl histamine in doses of 15, 30 and 45 mg/kg. Solutions of the tested medicament for oral administration were prepared ex tempore in stream water. Ampicillin (in intravenous administration) was used as a therapeutic preparation since it is the most experimentally studied antibiotic approved in clinical practice many years ago. Levofloxacin was used as a positive control (in oral administration).
Staphylococcus aureus was used as an infectious agent (mouse-adapted MRSA strain 5, collection from GU NIINA im.G.F. Gauze RAMN).
Firstly, there was determined a lethal dose (LD100) of staphylococcus when intravenously administered to this line of mice with a certain weight. Fatal cases among mice were registered every day for ten days. […] After that, there was determined the dose of ampicillin providing a survival rate of 20% of mice infected with staphylococcus MRSA taken in a lethal dose. For this purpose, mice were housed into cages by 10 animals and infected with a lethal dose of staphylococcus. One hour later, each mouse was intravenously administered ampicillin in doses of 30, 60, 90, 120, 150, and 180 mg/kg. A group of mice infected with a lethal dose of staphylococcus without the treatment was considered as a control group. Fatal cases among mice were registered every day for ten days.
The next step of the experiment was to study an effect of combined administration of glutaryl histamine with ampicilline on a model of MRSA-induced staphylococcal sepsis in mice.
In the experiment, the mice were housed in following groups of 10 animals per cage: […]

LPS-induced tonsillitis = LPS-induced tonsillitis model (E. coli LPS into cervical lymph node); assay type: in vivo; conditions: for Area of germinal centers of lymphoid follicles in affected lymph nodes / TP (blood total protein) / Weight difference between affected and intact lymph nodes: M ± m
Description: This example is aimed at evaluating the activity of glutaryl histamine on experimental model of tonsillitis. LPS-induced tonsillitis is one of the most adequate models for the study of the pathogenesis, pathomorphological changes and action of pharmacological medicaments on the course of this disease.
Tonsillitis was induced under anesthesia by administration of a solution of E. coli lipopolysaccharide (LPS) (Sigma) in normal physiological solution in a dose of 20 μg/kg, by 10 μl to the right upper lymph node (Inn. Cervicales superficiales). After administration, the lymph nodes were put under superficial neck muscles and then the skin was stitched. The wound was treated with streptocide. The animal was placed into a post-operation cage.
The tested medicament was administered once daily in a given dose strictly at the stated time for three days before the induction of tonsillitis and 10 days after. Normal saline solution was used as placebo.
Immediately after euthanasia, the animals were subjected to necropsy, the affected and intact lymph nodes were removed and weighed.
The lymph nodes derived from the half of animals from each group were being frozen after removal in a refrigerating chamber at −25° C. for 72 hours. Then the lymph nodes were lyophilized.
In a half of animals from each group (7), the affected lymph nodes were subjected to histological analysis. After euthanasia, intact and affected lymph nodes were removed from each animal. […] Sections with a thickness of 4 to 6 μm were prepared from the paraffin blocks, stained with hematoxylin and eosin to reveal typical pathological processes and study required parameters using light-optical microscope Leica DM LS (magnification 200× and 400×).
Weights of intact and affected lymph nodes were compared and the nodes also were lyophilized to evaluate an effect of the medicaments on the swelling degree and adequacy of the model of tonsillitis.
The protein-synthetic function of the liver and a systemic effect of the medicaments on organism were evaluated in total protein (TP) analysis.

[2] = group 2: ampicillin 120 mg/ml i.v. one time

CC1(C)S[C@@H]2[C@H](NC(=O)[C@H](N)c3ccccc3)C(=O)N2[C@H]1C(=O)O [ampicillin]
Survival rate (%) ([1]; ampicillin 30 mg/kg + LD100 St.a., day 10): 0% | Survival rate (%) ([1]; ampicillin 60 mg/kg + LD100 St.a., day 10): 0% | Survival rate (%) ([1]; ampicillin 90 mg/kg + LD100 St.a., day 10): 10% | Survival rate (%) ([1]; ampicillin 120 mg/kg + LD100 St.a., day 10): 20% | Survival rate (%) ([1]; ampicillin 150 mg/kg + LD100 St.a., day 10): 20% | Survival rate (%) ([1]; ampicillin 180 mg/kg + LD100 St.a., day 10): 20% | died/survived animals ([1]; day 1, ampicillin 30 mg/kg + LD100 St.a.): 0/10 | died/survived animals ([1]; day 1, ampicillin 60 mg/kg + LD100 St.a.): 0/10 | died/survived animals ([1]; day 1, ampicillin 90 mg/kg + LD100 St.a.): 0/10 | died/survived animals ([1]; day 1, ampicillin 120 mg/kg + LD100 St.a.): 0/10 | died/survived animals ([1]; day 1, ampicillin 150 mg/kg + LD100 St.a.): 0/10 | died/survived animals ([1]; day 1, ampicillin 180 mg/kg + LD100 St.a.): 0/10 | died/survived animals ([1]; day 1, group 2: ampicillin 120 mg/ml i.v. one time): 0/10 | died/survived animals ([1]; day 2, ampicillin 30 mg/kg + LD100 St.a.): 1/9 | died/survived animals ([1]; day 2, ampicillin 60 mg/kg + LD100 St.a.): 0/10 | died/survived animals ([1]; day 2, ampicillin 90 mg/kg + LD100 St.a.): 0/10 | died/survived animals ([1]; day 2, ampicillin 120 mg/kg + LD100 St.a.): 0/10 | died/survived animals ([1]; day 2, ampicillin 150 mg/kg + LD100 St.a.): 0/10 | died/survived animals ([1]; day 2, ampicillin 180 mg/kg + LD100 St.a.): 0/10 | died/survived animals ([1]; day 2, group 2: ampicillin 120 mg/ml i.v. one time): 0/10 | died/survived animals ([1]; day 3, ampicillin 30 mg/kg + LD100 St.a.): 3/7 | died/survived animals ([1]; day 3, ampicillin 60 mg/kg + LD100 St.a.): 2/8 | died/survived animals ([1]; day 3, ampicillin 90 mg/kg + LD100 St.a.): 1/9 | died/survived animals ([1]; day 3, ampicillin 120 mg/kg + LD100 St.a.): 1/9 | died/survived animals ([1]; day 3, ampicillin 150 mg/kg + LD100 St.a.): 0/10 | died/survived animals ([1]; day 3, ampicillin 180 mg/kg + LD100 St.a.): 0/10 | died/survived animals ([1]; day 3, group 2: ampicillin 120 mg/ml i.v. one time): 1/9 | died/survived animals ([1]; day 4, ampicillin 30 mg/kg + LD100 St.a.): 6/4 | died/survived animals ([1]; day 4, ampicillin 60 mg/kg + LD100 St.a.): 4/6 | died/survived animals ([1]; day 4, ampicillin 90 mg/kg + LD100 St.a.): 3/7 | died/survived animals ([1]; day 4, ampicillin 120 mg/kg + LD100 St.a.): 4/6 | died/survived animals ([1]; day 4, ampicillin 150 mg/kg + LD100 St.a.): 3/7 | died/survived animals ([1]; day 4, ampicillin 180 mg/kg + LD100 St.a.): 2/8 | died/survived animals ([1]; day 4, group 2: ampicillin 120 mg/ml i.v. one time): 2/8 | died/survived animals ([1]; day 5, ampicillin 30 mg/kg + LD100 St.a.): 8/2 | died/survived animals ([1]; day 5, ampicillin 60 mg/kg + LD100 St.a.): 6/4 | died/survived animals ([1]; day 5, ampicillin 90 mg/kg + LD100 St.a.): 5/5 | died/survived animals ([1]; day 5, ampicillin 120 mg/kg + LD100 St.a.): 6/4 | died/survived animals ([1]; day 5, ampicillin 150 mg/kg + LD100 St.a.): 5/5 | died/survived animals ([1]; day 5, ampicillin 180 mg/kg + LD100 St.a.): 4/6 | died/survived animals ([1]; day 5, group 2: ampicillin 120 mg/ml i.v. one time): 3/7 | died/survived animals ([1]; day 6, ampicillin 30 mg/kg + LD100 St.a.): 9/1 | died/survived animals ([1]; day 6, ampicillin 60 mg/kg + LD100 St.a.): 8/2 | died/survived animals ([1]; day 6, ampicillin 90 mg/kg + LD100 St.a.): 7/3 | died/survived animals ([1]; day 6, ampicillin 120 mg/kg + LD100 St.a.): 7/3 | died/survived animals ([1]; day 6, ampicillin 150 mg/kg + LD100 St.a.): 7/3 | died/survived animals ([1]; day 6, ampicillin 180 mg/kg + LD100 St.a.): 6/4 | died/survived animals ([1]; day 6, group 2: ampicillin 120 mg/ml i.v. one time): 5/5 | died/survived animals ([1]; day 7, ampicillin 30 mg/kg + LD100 St.a.): 10/0 | died/survived animals ([1]; day 7, ampicillin 60 mg/kg + LD100 St.a.): 9/1 | died/survived animals ([1]; day 7, ampicillin 90 mg/kg + LD100 St.a.): 8/2 | died/survived animals ([1]; day 7, ampicillin 120 mg/kg + LD100 St.a.): 8/2 | died/survived animals ([1]; day 7, ampicillin 150 mg/kg + LD100 St.a.): 7/3 | died/survived animals ([1]; day 7, ampicillin 180 mg/kg + LD100 St.a.): 7/3 | died/survived animals ([1]; day 7, group 2: ampicillin 120 mg/ml i.v. one time): 6/4 | died/survived animals ([1]; day 8, ampicillin 30 mg/kg + LD100 St.a.): 10/0 | died/survived animals ([1]; day 8, ampicillin 60 mg/kg + LD100 St.a.): 10/0 | died/survived animals ([1]; day 8, ampicillin 90 mg/kg + LD100 St.a.): 9/1 | died/survived animals ([1]; day 8, ampicillin 120 mg/kg + LD100 St.a.): 8/2 | died/survived animals ([1]; day 8, ampicillin 150 mg/kg + LD100 St.a.): 8/2 | died/survived animals ([1]; day 8, ampicillin 180 mg/kg + LD100 St.a.): 7/3 | died/survived animals ([1]; day 8, group 2: ampicillin 120 mg/ml i.v. one time): 7/3 | died/survived animals ([1]; day 9, ampicillin 30 mg/kg + LD100 St.a.): 10/0 | died/survived animals ([1]; day 9, ampicillin 60 mg/kg + LD100 St.a.): 10/0 | died/survived animals ([1]; day 9, ampicillin 90 mg/kg + LD100 St.a.): 9/1 | died/survived animals ([1]; day 9, ampicillin 120 mg/kg + LD100 St.a.): 8/2 | died/survived animals ([1]; day 9, ampicillin 150 mg/kg + LD100 St.a.): 8/2 | died/survived animals ([1]; day 9, ampicillin 180 mg/kg + LD100 St.a.): 8/2 | died/survived animals ([1]; day 9, group 2: ampicillin 120 mg/ml i.v. one time): 8/2 | died/survived animals ([1]; day 10, ampicillin 30 mg/kg + LD100 St.a.): 10/0 | died/survived animals ([1]; day 10, ampicillin 60 mg/kg + LD100 St.a.): 10/0 | died/survived animals ([1]; day 10, ampicillin 90 mg/kg + LD100 St.a.): 9/1 | died/survived animals ([1]; day 10, ampicillin 120 mg/kg + LD100 St.a.): 8/2 | died/survived animals ([1]; day 10, ampicillin 150 mg/kg + LD100 St.a.): 8/2 | died/survived animals ([1]; day 10, ampicillin 180 mg/kg + LD100 St.a.): 8/2 | died/survived animals ([1]; day 10, group 2: ampicillin 120 mg/ml i.v. one time): 8/2 | Mortality rate (%) [1, 2]: 80% | Survival rate (%) [1, 2]: 20%

O=C(O)CCCC(=O)NCCc1c[nH]cn1 [glutaryl histamine]
Mortality rate (%) (LPS-induced tonsillitis; Glutaryl histamine 9 mg/kg): 0% | The number of died animals/initial number of animals in a group (LPS-induced tonsillitis; Glutaryl histamine 9 mg/kg): 0/14 | Area of germinal centers of lymphoid follicles in affected lymph nodes (LPS-induced tonsillitis; Glutaryl histamine 9 mg/kg): 0.067 ± 0.006* mm^2 | TP (blood total protein) (LPS-induced tonsillitis; Glutaryl histamine 9 mg/kg): 67.2 ± 1.1 g/L | Weight difference between affected and intact lymph nodes (LPS-induced tonsillitis; Glutaryl histamine 9 mg/kg): 13.0 ± 1.3 mg | Mortality rate (%) (LPS-induced tonsillitis; Glutaryl histamine 27 mg/kg): 0% | The number of died animals/initial number of animals in a group (LPS-induced tonsillitis; Glutaryl histamine 27 mg/kg): 0/14 | Area of germinal centers of lymphoid follicles in affected lymph nodes (LPS-induced tonsillitis; Glutaryl histamine 27 mg/kg): 0.048 ± 0.003** mm^2 | TP (blood total protein) (LPS-induced tonsillitis; Glutaryl histamine 27 mg/kg): 65.0 ± 0.6* ** g/l | Weight difference between affected and intact lymph nodes (LPS-induced tonsillitis; Glutaryl histamine 27 mg/kg): 8.8 ± 1.1* ** mg | Area of germinal centers of lymphoid follicles in affected lymph nodes (LPS-induced tonsillitis; Glutaryl histamine 45 mg/kg): 0.066 ± 0.007* mm^2 | TP (blood total protein) (LPS-induced tonsillitis; Glutaryl histamine 45 mg/kg): 65.1 ± 0.8* ** g/l
